# Molecular target: T1, CECR2 (Homo sapiens, UniProt Q9BXF3)
# T1 construct: 424-538 was cloned, expressed, and purified to homogeneity; Flag; made in house
# Test: CECR2 TR-FRET Binding Assay
# Settings: IC50 (uM)
# Source text: IC50 Measurements for Inhibitors Using CECR2 TR-FRET Binding Assay
# T1 sequence (Q9BXF3 424-538 limits assumed): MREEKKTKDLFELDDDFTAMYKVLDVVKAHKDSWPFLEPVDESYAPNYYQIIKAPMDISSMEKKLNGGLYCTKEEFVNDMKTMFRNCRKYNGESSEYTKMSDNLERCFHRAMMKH
row,IC50 [µM],Compound
1,0.66,CC(c1ccccc1)N1CCC(N(C)C(=O)c2cn(C)c(=O)c3[nH]ccc23)CC1 (stereo not drawn) [Example 214]

# Same assay, conditions: read-out: IC50
row,IC50 [µM],Compound
1,0.37,CN(CC1CCN(CC2CCCCC2)CC1)C(=O)c1cn(C)c(=O)c2[nH]ccc12 [Example 206]
2,0.81,"CC(C)CN1CCC(N(C)C(=O)c2cn(C)c(=O)c3[nH]ccc23)CC1 [Example 207, N-(1-isobutyl-4-piperidyl)-N,6-dimethyl-7-oxo-1H-pyrrolo[2,3-c]pyridine-4-carboxamide]"
3,1.2,CN(C(=O)c1cn(C)c(=O)c2[nH]ccc12)C1CCN(CC2CC2)CC1 [Example 208]
4,2.2,"CN1CCC(C)(CNC(=O)c2cn(C)c(=O)c3[nH]ccc23)CC1 [Example 211, N-[(1,4-dimethyl-4-piperidyl)methyl]-6-methyl-7-oxo-1H-pyrrolo[2,3-c]pyridine-4-carboxamide]"
5,1.7,"CC(C)N1CCC(C)(CNC(=O)c2cn(C)c(=O)c3[nH]ccc23)CC1 [Example 212, N-[(1-isopropyl-4-methyl-4-piperidyl)methyl]-6-methyl-7-oxo-1H-pyrrolo[2,3-c]pyridine-4-carboxamide]"
6,0.71,"CN(C(=O)c1cn(C)c(=O)c2[nH]ccc12)C1CCN(Cc2ccc(C#N)cc2)CC1 [Example 213, N-[1-[(4-cyanophenyl)methyl]-4-piperidyl]-N,6-dimethyl-7-oxo-1H-pyrrolo[2,3-c]pyridine-4-carboxamide]"
7,1.2,CN(C(=O)c1cn(C)c(=O)c2[nH]ccc12)C1CCN(Cc2ccccc2F)CC1 [Example 216]
8,0.77,Cc1ccc(CN2CCC(N(C)C(=O)c3cn(C)c(=O)c4[nH]ccc34)CC2)cc1 [Example 218]
9,1.1,CN(C(=O)c1cn(C)c(=O)c2[nH]ccc12)C1CCN(Cc2cccc(C#N)c2)CC1 [Example 220]
10,0.67,COc1ccc(CN2CCC(N(C)C(=O)c3cn(C)c(=O)c4[nH]ccc34)CC2)cc1 [Example 221]
11,0.97,CN(C(=O)c1cn(C)c(=O)c2[nH]ccc12)C1CCN(Cc2ccccc2Cl)CC1 [Example 223]
12,0.78,CN(C(=O)c1cn(C)c(=O)c2[nH]ccc12)C1CCN(Cc2cccc(Cl)c2)CC1 [Example 224]
13,1.4,COCCN1CCC(N(C)C(=O)c2cn(C)c(=O)c3[nH]ccc23)CC1 [Example 225]
14,0.7,CN(C(=O)c1cn(C)c(=O)c2[nH]ccc12)C1CCN(CCC2CC2)CC1 [Example 226]
15,2,CCN(C(=O)c1cn(C)c(=O)c2[nH]ccc12)C1CCN(C(C)C)CC1 [Example 227]
16,0.64,CN(CC1CCN(CCC2CCCCC2)CC1)C(=O)c1cn(C)c(=O)c2[nH]ccc12 [Example 229]
17,0.79,CN(CC1CCN(CC2CCCOC2)CC1)C(=O)c1cn(C)c(=O)c2[nH]ccc12 (stereo not drawn) [Example 230]
18,1.2,COCCCN1CCC(CN(C)C(=O)c2cn(C)c(=O)c3[nH]ccc23)CC1 [Example 232]
19,0.77,CN(CC1CCN(CC2CCC2)CC1)C(=O)c1cn(C)c(=O)c2[nH]ccc12 [Example 233]
20,1,CN(CC1CCN(CC2CCOCC2)CC1)C(=O)c1cn(C)c(=O)c2[nH]ccc12 [Example 234]
21,1.1,CC(C)N1CCCC(NC(=O)c2cn(C)c(=O)c3[nH]ccc23)CC1 (stereo not drawn) [Example 241]

row,IC50 [µM],Compound
1,1.4,CC(C)N1C2CCC1CC(N(C)C(=O)c1cn(C)c(=O)c3[nH]ccc13)C2 (stereo not drawn) [Example 242]
2,2,CC(C)N1CCC(N(C(=O)c2cn(C)c(=O)c3[nH]ccc23)C2CC2)CC1 [Example 243]
3,4.8,"C=CCn1cc(C(=O)N(C)[C@H]2[C@@H]3CN(c4ccnc(C#N)n4)C[C@@H]32)c2cc[nH]c2c1=O [Example 249, 6-allyl-N-[(1S,5R)-3-(2-cyanopyrimidin-4-yl)-3-azabicyclo[3.1.0]hexan-6-yl]-N-methyl-7-oxo-1H-pyrrolo[2,3-c]pyridine-4-carboxamide]"
4,6.2,C=CCn1cc(C(=O)N(C)C2C3CN(c4ccncn4)CC32)c2cc[nH]c2c1=O (stereo not drawn) [Example 251]
5,0.98,CN(C(=O)c1cn(C)c(=O)c2[nH]ccc12)C1CCN(CCc2ccccc2F)CC1 [Example 253]
6,0.7,CN(C(=O)c1cn(C)c(=O)c2[nH]ccc12)C1CCN(CCc2ccc(Cl)cc2)CC1 [Example 254]
7,0.03,C=CCn1cc(C(=O)N(C)C2CCN(c3cc(C4CC4)nc(C)n3)CC2)c2cc(C)[nH]c2c1=O [Example 266]
8,0.017,"C=CCn1cc(C(=O)N(C)C2CCN(c3cc(C)nc(C4CC4)n3)CC2)c2cc(C)[nH]c2c1=O [Example 267, 6-allyl-N-(1-(2-cyclopropyl-6-methylpyrimidin-4-yl)piperidin-4-yl)-N,2-dimethyl-7-oxo-6,7-dihydro-1H-pyrrolo[2,3-c]pyridine-4-carboxamide]"
9,0.023,"C=CCn1cc(C(=O)N(C)C2CCN(c3cc(-c4cccnc4C)ncn3)CC2)c2cc(C)[nH]c2c1=O [Example 268, 6-allyl-N,2-dimethyl-N-[1-[6-(2-methyl-3-pyridyl)pyrimidin-4-yl]-4-piperidyl]-7-oxo-1H-pyrrolo[2,3-c]pyridine-4-carboxamide]"
10,0.033,C=CCn1cc(C(=O)N(C)C2CCN(c3cc(-c4ccco4)ncn3)CC2)c2cc(C)[nH]c2c1=O [Example 269]
11,0.018,C=CCn1cc(C(=O)N(C)C2CCN(c3cc(-c4ccccc4Cl)ncn3)CC2)c2cc(C)[nH]c2c1=O [Example 270]
12,0.011,"C=CCn1cc(C(=O)N(C)C2CCN(c3cc(-c4ccccn4)ncn3)CC2)c2cc(C)[nH]c2c1=O [Example 271, 6-allyl-N,2-dimethyl-7-oxo-N-[1-[6-(2-pyridyl)pyrimidin-4-yl]-4-piperidyl]-1H-pyrrolo[2,3-c]pyridine-4-carboxamide]"
13,0.035,C=CCn1cc(C(=O)N(C)C2CCN(c3cc(-c4ncccc4C)ncn3)CC2)c2cc(C)[nH]c2c1=O [Example 272]
14,0.11,"C=CCn1cc(C(=O)N(C)C2CCCc3ccccc32)c2cc(C)[nH]c2c1=O (stereo not drawn) [Example 275, 6-allyl-N,2-dimethyl-7-oxo-N-tetralin-1-yl-1H-pyrrolo[2,3-c]pyridine-4-carboxamide]"
15,0.038,C=CCn1cc(C(=O)N(C)C2CCCc3ncccc32)c2cc(C)[nH]c2c1=O (stereo not drawn) [Example 276]
16,0.053,C=CCn1cc(C(=O)N(C)C2CCOc3ccccc32)c2cc(C)[nH]c2c1=O (stereo not drawn) [Example 277]
17,0.057,C=CCn1cc(C(=O)N(C)C2CCOc3cc(F)ccc32)c2cc(C)[nH]c2c1=O (stereo not drawn) [Example 278]
18,0.044,"C=CCn1cc(C(=O)N(C)C2CCCc3cnccc32)c2cc(C)[nH]c2c1=O (stereo not drawn) [Example 283, 6-allyl-N,2-dimethyl-7-oxo-N-(5,6,7,8-tetrahydroisoquinolin-5-yl)-1H-pyrrolo[2,3-c]pyridine-4-carboxamide]"
19,0.053,C=CCn1cc(C(=O)N(C)C2CCCc3ccc(F)cc32)c2cc(C)[nH]c2c1=O (stereo not drawn) [Example 284]
20,0.15,C=CCn1cc(C(=O)N(C)C2CCCc3c(C)cccc32)c2cc(C)[nH]c2c1=O (stereo not drawn) [Example 285]

# Molecular target: T2, TAF1-BD2 (Homo sapiens, UniProt P21675)
# T2 sequence (P21675 1525-1656): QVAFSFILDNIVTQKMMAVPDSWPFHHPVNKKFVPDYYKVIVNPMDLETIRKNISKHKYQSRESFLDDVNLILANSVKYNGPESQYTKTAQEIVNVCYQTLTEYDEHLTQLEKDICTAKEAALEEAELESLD
# Test: TAF1-BD2 TR-FRET Binding Assay
# Settings: Assay: TAF-1
# Procedure: Specifically, in a 384 well ProxiPlate TAF1-BD2 (6 nM final) was combined with biotin-ligand (50 nM final) in 50 mM HEPES (pH 7.5), 50 mM NaCl, 1 mM TCEP, 0.01% (w/v) BSA, and 0.008% (w/v) Brij-35 either in the presence of DMSO (final 0.2% DMSO) or compound dilution series in DMSO. After 10 minutes incubation at room temperature, a mixture Eu-W1024 Anti-6×His antibody (Perkin Elmer AD0110) and SureLight™ Allophycocyanin-Streptavidin (APC-SA, Perkin Elmer CR130-100) were added to a final concentrations of 0.2 nMolar antibody and 25 nMolar APC-SA, respectively. After twenty minutes of equilibration, the plates were read on an Envision instrument and IC50s calculated using a four parameter non-linear curve fit.
row,IC50 [nM],Compound
1,580,CC(C)N1CC[C@@H](NC(=O)c2cn(C)c(=O)c3[nH]ccc23)[C@H](F)C1 (relative stereo) [Example 209]
2,2100,CC(C)N1CC[C@H](NC(=O)c2cn(C)c(=O)c3[nH]ccc23)[C@H](C)C1 (relative stereo) [Example 238]
3,3400,CC(C)N1CC[C@H](NC(=O)c2cn(C)c(=O)c3[nH]ccc23)[C@H](F)C1 (relative stereo) [Example 240]
4,320,"CN1CCC(NC(=O)c2cn(C)c(=O)c3[nH]ccc23)CC1 [Example 4, 6-methyl-N-(1-methyl-4-piperidyl)-7-oxo-1H-pyrrolo[2,3-c]pyridine-4-carboxamide]"
5,4700,"CC=CCn1cc(C(=O)NCC2CN(C(=O)OC(C)(C)C)C2)c2cc[nH]c2c1=O [Example 10, tert-butyl 3-[[(6-but-2-enyl-7-oxo-1H-pyrrolo[2,3-c]pyridine-4-carbonyl)amino]methyl]azetidine-1-carboxylate]"
6,3700,"CC=CCn1cc(C(=O)NCCNC(C)=O)c2cc[nH]c2c1=O [Example 14, N-(2-acetamidoethyl)-6-but-2-enyl-7-oxo-1H-pyrrolo[2,3-c]pyridine-4-carboxamide]"
7,970,"CC=CCn1cc(C(=O)NC(C)(C)C)c2cc[nH]c2c1=O [Example 15, 6-but-2-enyl-N-tert-butyl-7-oxo-1H-pyrrolo[2,3-c]pyridine-4-carboxamide]"
8,6000,"CC=CCn1cc(C(=O)NCCN2CCN(Cc3ccccc3)CC2)c2cc[nH]c2c1=O [Example 16, N-[2-(4-benzylpiperazin-1-yl)ethyl]-6-but-2-enyl-7-oxo-1H-pyrrolo[2,3-c]pyridine-4-carboxamide]"
9,3600,"CC=CCn1cc(C(=O)NCCCNC(=O)OCc2ccccc2)c2cc[nH]c2c1=O [Example 17, benzyl N-[3-[(6-but-2-enyl-7-oxo-1H-pyrrolo[2,3-c]pyridine-4-carbonyl)amino]propyl]carbamate]"
10,1500,"Cn1cc(C(=O)NCCC2CCN(CC(F)(F)F)CC2)c2cc[nH]c2c1=O [Example 20, 6-methyl-7-oxo-N-[2-[1-(2,2,2-trifluoroethyl)-4-piperidyl]ethyl]-1H-pyrrolo[2,3-c]pyridine-4-carboxamide]"
11,150,"CN1CCCC(CNC(=O)c2cn(C)c(=O)c3[nH]ccc23)C1 (stereo not drawn) [Example 24, 6-methyl-N-[(1-methyl-3-piperidyl)methyl]-7-oxo-1H-pyrrolo[2,3-c]pyridine-4-carboxamide]"
12,690,"CN1CCC(CCNC(=O)c2cn(C)c(=O)c3[nH]ccc23)CC1 [Example 25, 6-methyl-N-[2-(1-methyl-4-piperidyl)ethyl]-7-oxo-1H-pyrrolo[2,3-c]pyridine-4-carboxamide]"
